Results reported in US20240327506A1, “METHODS AND COMPOSITION FOR THE SELECTIVE ENHANCEMENT OF ADOPTIVE CELL THERAPY” (MaineHealth, priority 2023, published 2024).

Tests used:
Cem/C1 T-cells = experiment: Transwell migration of Cem/C1 T-cells through collagen type-IV; assay type: cell-based; details: peptide, SDF-1
Experimental: FIGS. 4A-4H. […] Briefly, membranes from transwell migration chambers were coated with either native collagen type-IV or denatured collagen type-IV. T-cell variants were incubated with non-specific control peptide CP, or the RGDKGE (SEQ ID NO: 1)-containing collagen peptide (P2) and seed on the coated transwell membranes. T-cells were allowed to migrate in the presence or absence of SDF-1 added to the lower chamber for approximately 1.5 hours. Cell migration was quantified by counting the number of crystal violet stained cells that had migrated through to the underside of the coated membrane. FIG. 4A. Jurkat T-cell migration through denatured collagen type-IV in the presence of non-specific control peptide CP or RGDKGE (SEQ ID NO: 1)-containing collagen peptide P2 with SDF-1. FIG. 4B. […]
Given our new observations, and the fact that many tumor types as well as immunosuppressive macrophages can secrete the small soluble RGDKGE (SEQ ID NO: 1) collagen peptide, we next sought to determine whether this soluble collagen peptide could impact T-cell migration through denatured collagen type-IV, a critical ECM component shown to be selectively enriched in tumor vessels. […] Cell migration was quantified following staining cells with crystal violet (6,8). […]

[1] = tested on: angiogenesis and inflammation; details: peptide; cited from earlier work
[2] = tested on: primary murine CD8+ T-cells; experiment: CD8+ T-cell polarization on denatured collagen type-IV (F-actin staining); assay type: cell-based; details: denatured collagen type-IV coated slides, 1 hour, compared to CP
Source text: FIGS. 3A-3C. The RGDKGE (SEQ ID NO: 1)-containing collagen peptide P2 inhibits CD8+ T-cell polarization on denatured collagen type-IV. Briefly, microscopy slides were coated with denatured collagen type-IV to mimic the altered subendothelial basement membranes of tumor associated blood vessels. Murine primary CD8+ T-cells were isolated from mice bearing B16F10 melanomas and stimulated with either non-specific control peptide CP or the RGDKGE (SEQ ID NO: 1)-containing collagen peptide P2 and seeded on the coated slides. T-cells were allowed to incubate for 1 hour. Next slides were washed, fixed and stained with Rhodamine-labeled Phalloidin to mark F-actin. Cells were analyzed for morphological evidence of cell shape changes and polarized F-actin. FIG. 3A. Example of an enlarged image of CD8+ T-cell morphology following stimulation with either non-specific control peptide CP or the RGDKGE (SEQ ID NO: 1)-containing collagen peptide P2. FIG. 3B. Example of CD8+ T-cell morphology following stimulation with either non-specific control peptide CP or the RGDKGE (SEQ ID NO: 1)-containing collagen peptide P2. […] FIG. 3C. Quantification of the mean percentage of polarized CD8+ T-cells per 400× microscopic field. Data bars indicate mean percentage of polarized cells per 400× microscopic field from two independent experiments with 10 to 11 fields per treatment. *P<0.05. […]

Sequence: QGPRGDKGE (CQGPRGDKGEC; Synthetic: Synthetic collagen RGD containing peptide P-2) [Peptide P2, synthetic version of the soluble RGDKGE-containing collagen peptide]
- Cem/C1 T-cell migration (Cem/C1 T-cells; denatured collagen type-IV): selectively inhibited
- Cem/C1 T-cell migration (Cem/C1 T-cells; native collagen type-IV): neither the soluble RGDKGE (SEQ ID NO: 1) collagen peptide P2, nor the non-specific control peptide had any significant effect
- induction of angiogenesis and inflammation in vivo [1]: significantly induced angiogenesis and inflammation
- percentage of T-cells exhibiting a migratory and polarized morphological phenotype [2]: significant decrease
